Drawing on US9375005B2, “5-halogenopyrazole indanyl carboxamides” (BAYER CROPSCIENCE AG, priority 2012, dated 2016), this text covers logP and Eff. % for 14 molecules.

A short description of data set [1]: Measurement of log P values by HPLC on reversed phase columns (EEC directive 79/831 Annex V.A8). The class given is physicochemical.
Data set [2] deals with Pyrenophora teres. The experiment in a line: In vivo preventive test on Pyrenophora teres (net blotch on barley). Particulars: dose 500 ppm; barley plants sprayed 24 h before contamination; grading 14 days after contamination. The method, boiled down: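 "Plaisant" barley grown at 22° C, sprayed with active ingredient at the 1-leaf stage, then inoculated 24 h later with 12 000 spores/ml of P. teres. Efficacy (%) graded 14 days post-contamination against solvent-only (acetone/tween/DMSO/water) controls.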

Data set [3] concerns Puccinia recondita. Description: In vivo preventive test on Puccinia recondita (brown rust on wheat). The note with it: wheat plants sprayed 24 h before contamination, grading 12 days after contamination. As for the experimental part: Plants, used as controls, are treated with the mixture of acetone/tween/DMSO/water not containing the active material. After 24 hours, the plants are contaminated by spraying the leaves with an aqueous suspension of Puccinia recondita spores (100 000 spores per ml). […] Grading (% of efficacy) is carried out 12 days after the contamination, in comparison with the control plants.

The subject of data set [4] is Uromyces appendiculatus. The experiment in a line: In vivo preventive test on Uromyces appendiculatus (bean rust). Particulars: bean plants sprayed 24 h before contamination, grading 11 days after contamination. The method, boiled down: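 Saxa bean plants grown at 24° C were sprayed at the 2-leaf stage (9 cm) with compound in acetone/tween/DMSO/water; controls got solvent mix only. Leaves inoculated 24 h later with U. appendiculatus spores (150 000 spores/ml). Efficacy (%) graded 11 days post-inoculation versus controls.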

The subject of data set [5] is Phakopsora pachyrhizi. The experiment in a line: In vivo preventive Phakopsora test (soybeans). Particulars: concentration 10 ppm of active ingredient; soybean plants; evaluated 7 days after inoculation.
The test system of data set [6] is Alternaria brassicae. The experiment in a line: In vivo preventive test on Alternaria brassicae (leaf spot on radish). The note with it: radish plants sprayed 24 h before contamination, grading 6 days after contamination vs control plants. The procedure: Radish plants (“Pernod Clair” variety), sown in starter cups on a 50/50 peat soil-pozzolana substrate and grown at 17° C., are treated at the cotyledon stage by spraying with the active ingredient prepared as described above. Plants, used as controls, are treated with the mixture of acetone/tween/DMSO/water not containing the active material. After 24 hours, the plants are contaminated by spraying the cotyledons with an aqueous suspension of Alternaria brassicae spores (50 000 spores per ml). The spores are collected from a 15-day-old culture. […] Grading (% of efficacy) is carried out 6 days after the contamination, in comparison with the control plants.

Data set [7] deals with Pyricularia oryzae. The class given is in vivo. Particulars: rice plants sprayed 24 h before contamination, grading 6 days after contamination.
Data set [8] deals with Botrytis cinerea. Description: In vivo preventive test on Botrytis cinerea (grey mould). Particulars: gherkin plants sprayed 24 h before contamination, grading 4 to 5 days after contamination. As for the experimental part: Gherkin plants (“Vert petit de Paris” variety), sown in starter cups on a 50/50 peat soil-pozzolana substrate and grown at 24° C., are treated at the Z11 cotyledon stage by spraying with the active ingredient prepared as described above. Plants, used as controls, are treated with the mixture of acetone/tween/DMSO/water not containing the active material. After 24 hours, the plants are contaminated by spraying the cotyledons with an aqueous suspension of cryopreserved Botrytis cinerea spores (50 000 spores per ml). The spores are suspended in a nutrient solution composed of 10 g/L of PDB, 50 g/L of D-Fructose, 2 g/L of NH4NO3 and 1 g/L of KH2PO4. […] Grading (% of efficacy) is carried out 4 to 5 days after the contamination, in comparison with the control plants.

For data set [9], the system named is Sphaerotheca fuliginea. The experiment in a line: In vivo preventive test on Sphaerotheca fuliginea (powdery mildew on cucurbits). The note with it: dose 500 ppm; gherkin plants sprayed 24 h before contamination; grading 12 days after contamination. The method, boiled down: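 Gherkin plants sprayed with compound at the Z11 cotyledon stage, then inoculated 24 hours later with Sphaerotheca fuliginea spores (100 000 spores per ml). Kept at about 20 °C and 70-80% relative humidity; % efficacy versus solvent-treated controls graded 12 days after contamination.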

Data set [10] concerns Septoria tritici. Description: In vivo preventive test on Septoria tritici (leaf spot on wheat). The note with it: dose 500 ppm; wheat plants sprayed 24 h before contamination; grading 24 days after contamination. As for the experimental part:
Wheat plants (“Scipion” variety), sown in starter cups on a 50/50 peat soil-pozzolana substrate and grown at 22° C., are treated at the 1-leaf stage (10 cm height) by spraying with the active ingredient prepared as described above. Plants, used as controls, are treated with the mixture of acetone/tween/DMSO/water not containing the active material. After 24 hours, the plants are contaminated by spraying the leaves with an aqueous suspension of cryopreserved Septoria tritici spores (500 000 spores per ml). […] Grading (% of efficacy) is carried out 24 days after the contamination, in comparison with the control plants.

Like-named read-outs stand apart in the source and are kept apart here.

Regarding `CC1Cc2c(NC(=O)c3c(C(F)F)nn(C)c3Cl)cccc2C1(C)C` (stereo not shown) [Example 46], in data set [1] (method marked [a]), the logP is 4.19[a]. Also, the Eff. % in [2] stood at 75%; in [3] (dose 500 ppm), 100%; in data set [4] (dose 500 ppm), 100%; in data set [5], 94%; in data set [6] (dose 500 ppm), 86%; in data set [7] (dose 500 ppm) it was 97%.

For `Cn1nc(C(F)F)c(C(=O)Nc2cccc3c2CC(Cc2ccccc2)C3)c1Cl` (stereo not shown) [Example 39], the logP in data set [1] (method marked [a]) was 4.41[a]. The figures for the Eff. % in data set [4] (dose 500 ppm), in data set [6] (dose 500 ppm) and in data set [7] (dose 500 ppm) were 100%, 79% and 86%, respectively.

Regarding `CC1CC(C)c2c(NC(=O)c3c(C(F)F)nn(C)c3Cl)cccc21` (stereo not shown) [Example 44], the Eff. % in [3] (dose 500 ppm) is recorded as 100%; in data set [4] (dose 500 ppm), 100%; in [5], 98%.

Regarding `CC1CC2(CC2)c2cccc(NC(=O)c3c(C(F)F)nn(C)c3F)c21` (stereo not shown) [Example 50], in data set [1] (method marked [a]), the logP was 3.55[a]. Moreover, the Eff. % in [2] worked out at 80%; in [8] (dose 500 ppm), 100%; in data set [3] (dose 500 ppm), 98%; in data set [4] (dose 500 ppm) it was 100%; in data set [9], 98%; in data set [6] (dose 500 ppm), 93%.

Regarding `Cn1nc(C(F)F)c(C(=O)Nc2cccc3c2CCC32CC2)c1F` [Example 11], the logP in data set [1] (method marked [a]) is 3.33[a]. The Eff. % in [2] came to 80%; in data set [8] (dose 500 ppm) it was 98%; in data set [3] (dose 500 ppm), 98%; in data set [4] (dose 500 ppm), 100%; in data set [6] (dose 500 ppm), 92%.

Turning to `CC1c2c(NC(=O)c3c(C(F)F)nn(C)c3F)cccc2C(C)(C)C1C` (stereo not shown) [Example 64], in data set [1] (method marked [a]), the logP was 3.96[a]. The Eff. % was 97% in data set [2]; 93% in data set [10]; 100% in data set [8] (dose 500 ppm); 100% in data set [3] (dose 500 ppm); 100% in data set [4] (dose 500 ppm); 100% in data set [9]. The molecule further gave an Eff. % in data set [6] (dose 500 ppm) of 100%.

On to `CC1c2cccc(NC(=O)c3c(C(F)F)nn(C)c3F)c2CC1(C)C` (stereo not shown) [Example 78], for which, in [1] (method marked [a]), the logP was 3.92[a]. Moreover, the Eff. % came out at 88% in [10]; 75% in data set [8] (dose 500 ppm); 98% in data set [3] (dose 500 ppm); 100% in data set [4] (dose 500 ppm); 100% in data set [9]; 95% in data set [6] (dose 500 ppm).

As to `CC1Cc2c(NC(=O)c3c(C(F)F)nn(C)c3F)cccc2C1(C)C` (stereo not shown) [Example 45], the logP in data set [1] (method marked [a]) was 3.94[a]. For the same molecule, the Eff. % in [3] (dose 500 ppm) amounted to 100%; in [4] (dose 500 ppm), 100%; in [9] it was 100%; in data set [7] (dose 500 ppm) it was 83%.

For the molecule `CC1CC2(CC2)c2cccc(NC(=O)c3c(C(F)F)nn(C)c3Cl)c21` (stereo not shown) [Example 51], in data set [1] (method marked [a]), the logP was 3.83[a]. The Eff. % was determined as 70% in data set [2]; 94% in data set [8] (dose 500 ppm); 98% in [3] (dose 500 ppm); 100% in [4] (dose 500 ppm); 93% in data set [5].

As to `Cn1nc(C(F)F)c(C(=O)Nc2cccc3c2C(C)(C)CC3)c1Cl` [Example 89], the logP in data set [1] (method marked [a]) was 3.53[a]. In data set [7] (dose 100 ppm), this molecule came in with an Eff. % of 93%.

On to `CC1CC(C)(C)c2c(C3CC3)ccc(NC(=O)c3c(C(F)F)nn(C)c3F)c21` (stereo not shown) [Example 17], for which the logP in [1] (method marked [a]) is 4.35[a];; in data set [1] (method marked [b]), 4.28[b]. The Eff. % in data set [2] is reported as 97%; in data set [8] (dose 500 ppm) it was 98%; in [3] (dose 500 ppm) it was 94%; in [4] (dose 500 ppm), 97%.

For the molecule `CC1CC2(CCCCC2)c2cccc(NC(=O)c3c(C(F)F)nn(C)c3F)c21` (stereo not shown) [Example 107], in data set [1] (method marked [a]), the logP was 4.73[a]. In addition, the Eff. % in data set [8] (dose 100 ppm) was determined as 100%; in data set [3] (dose 100 ppm), 100%; in data set [4] (dose 100 ppm) it was 100%; in data set [6] (dose 100 ppm) it was 97%.

Take `Cc1ccc(NC(=O)c2c(C(F)F)nn(C)c2F)c2c1C(C)(C)CC2C` (stereo not shown) [Example 19]: the logP in data set [1] (method marked [a]) was 3.99[a];; in data set [1] (method marked [b]), 3.92[b]. The Eff. % in data set [2] is 97%; in [8] (dose 500 ppm) it was 98%; in data set [3] (dose 500 ppm) it was 94%; in [4] (dose 500 ppm), 77%; in data set [6] (dose 500 ppm), 75%.

For `CC1CC2(CC2)c2cccc(NC(=S)c3c(C(F)F)nn(C)c3F)c21` (stereo not shown) [Example 60], the logP in data set [1] (method marked [a]) is 3.71[a]. Besides, the Eff. % in data set [2] is reported as 100%; in [10], 93%; in data set [8] (dose 500 ppm), 100%; in data set [4] (dose 500 ppm), 100%; in [9], 100%.
